The text below walks through data of US8937180B2, “Method for preparing a polymer conjugate” (Nektar Therapeutics, priority 2006, dated 2015).

Data set [1] in a line: Maximum tolerated dose in tumor-bearing athymic nude mice. To be noted: mouse, in vivo, intravenous.
A further data set has as its system DU-145 prostate tumors. Put plainly: Anti-tumor activity in mice implanted with DU-145 prostate tumors. The settings on record: two doses (q7d×2), FIG. 2.

As usually defined, the MTD is the largest dose that counted as tolerated. With `CC(=O)O[C@@]12CO[C@@H]1C[C@H](O)[C@@]1(C)C(=O)[C@H](O)C3=C(C)[C@@H](OC(=O)[C@H](O)[C@@H](NC(=O)OC(C)(C)C)c4ccccc4)C[C@@](O)([C@@H](OC(=O)c4ccccc4)[C@H]21)C3(C)C` [docetaxel, Docetaxel], the MTD at 78 day in data set [1] (athymic nude, mice with DU-145 prostate tumors) is at most 30 mg/kg. The MTD in data set [1] (athymic nude mice, H460 NSCLC tumors, 2nd study) was at most 30 mg/kg. For the same compound, the “anti-tumor effect on tumor growth” value in the data set on DU-145 prostate tumors (3 doses tested, 78 day observation period) is reported as “good activity”. In the data set with DU-145 prostate tumors, the “time after which tumors recover and grow” value was in the range of 30 to 50 days.
